“And” between values parts separate entries of the source, which are not always exact repeats. Equal entries are not always repeated. Where only a bound is given, the exact number is not on record here.

From article PMC6395927, “Rufomycin Targets ClpC1 Proteolysis in Mycobacterium tuberculosis and M. abscessus” (Antimicrobial Agents and Chemotherapy, 2019) come the findings set out here.

Common to all, as to type: cell-based, Mycobacterium tuberculosis
In assay [1] the test system is rRUFI M. tuberculosis strains (clpC1 mutants).
Assay [2] concerns rECU M. tuberculosis strains (clpC1 mutants).
In assay [3] the test system is M. tuberculosis clinical isolates (pan-susceptible, MDR, XDR).

In general, MIC refers to the least concentration at which growth counts as inhibited. Lower therefore signals inhibition by little substance. For the compound `NNC(=O)c1ccncc1` [INH, isoniazid], the minimum inhibitory concentration (MIC) in assay [1] was 0.22 µM and 0.23 µM and 0.12 µM and 0.24 µM.
With `CC(=O)NC[C@H]1CN(c2ccc(N3CCOCC3)c(F)c2)C(=O)O1` [LZD, linezolid], in assay [2], the MIC is 2.5 µM and 1.9 µM and 1.6 µM.
As to `O=[N+]([O-])c1cn2c(n1)OC[C@@H](OCc1ccc(OC(F)(F)F)cc1)C2` [PA824, pretomanid], the minimal inhibitory concentration (MIC) in assay [1] was <0.031 µM and 0.041 µM and 0.046 µM; in assay [2], less than 0.031 µM.
Take `C/C=C/C[C@@H]1NC(=O)[C@H](CC(C)C)N2C(=O)C(C[C@H](C)[C@H]2O)N(C)C(=O)[C@H](C)NC(=O)[C@H](Cc2ccc(O)c([N+](=O)[O-])c2)NC(=O)[C@H](CC(C)C)N(C)C(=O)[C@H](Cc2cn(C(C)(C)C3CO3)c3ccccc23)NC1=O` (some centres unmarked) [RUFI, rufomycin I]: the MIC in assay [2] was <0.01 µM and 0.017 µM. The “activity against monoresistant, MDR, and XDR strains” value in assay [3] is on record as “maintains activity”.
Take `[H]/N=C(/N)N[C@H]1[C@H](O)[C@@H](O)[C@H](O[C@@H]2O[C@@H](C)[C@](O)(C=O)[C@H]2O[C@@H]2O[C@@H](CO)[C@H](O)[C@@H](O)[C@@H]2NC)[C@@H](N/C(N)=N\[H])[C@@H]1O` [STR, streptomycin]: the minimum inhibitory concentration (MIC) in assay [2] was 0.15 µM and 0.16 µM.
For the compound capreomycin, the MIC in assay [2] was 0.42 µM and 0.49 µM.
